Values quoted from earlier work in patent US6635757B1, “Process for preparing cyclodextrin inclusion complex” (Vittal Mallya Scientific Research Foundation, priority 2001, dated 2003).

Tests used:
[1] = tested on: insects

SMILES	Activity compared with NSKE (containing azadirachtin-A<70%) ([1]; azadirachtin-A of 99% purity)	Sensitivity to sunlight	Physiological concentration required to elicit growth retardation ([1]; varies from species to species)
C/C=C(\C)C(=O)O[C@H]1C[C@@H](OC(C)=O)[C@@]2(C(=O)OC)CO[C@H]3[C@@H](O)[C@@](C)([C@]45O[C@@]4(C)[C@@H]4C[C@H]5O[C@@H]5OC=C[C@@]54O)[C@H]4[C@]1(CO[C@]4(O)C(=O)OC)[C@@H]32 [Azadirachtin-A]	not as active as NSKE	–	–
C/C=C(\C)C(=O)O[C@H]1C[C@@H](OC(C)=O)[C@@]2(C(=O)OC)CO[C@H]3[C@@H](O)[C@@](C)([C@]45O[C@@]4(C)[C@H]4C[C@@H]5O[C@@H]5OC=C[C@@]54O)[C@H]4[C@]1(CO[C@]4(O)C(=O)OC)[C@@H]32 [Azadirachtin]	–	extremely sensitive	1-100 ppm
